Laboratory results as given in patent publication US7943603B2, “Medical uses of a selective estrogen receptor modulator in combination with sex steroid precursors” (Endorecherche, Inc., priority 1998, dated 2011).
Where “and” joins values, the source holds several entries; their conditions need not be identical. Equal values may be shown once. Entries after “also recorded” stand apart in the source; their conditions may differ.

Tests used:
estrogen receptor = target: T1, estrogen receptor (Homo sapiens, UniProt P03372); experiment: Testing of antiestrogens for function as SERM
T1 sequence (P03372 1-595): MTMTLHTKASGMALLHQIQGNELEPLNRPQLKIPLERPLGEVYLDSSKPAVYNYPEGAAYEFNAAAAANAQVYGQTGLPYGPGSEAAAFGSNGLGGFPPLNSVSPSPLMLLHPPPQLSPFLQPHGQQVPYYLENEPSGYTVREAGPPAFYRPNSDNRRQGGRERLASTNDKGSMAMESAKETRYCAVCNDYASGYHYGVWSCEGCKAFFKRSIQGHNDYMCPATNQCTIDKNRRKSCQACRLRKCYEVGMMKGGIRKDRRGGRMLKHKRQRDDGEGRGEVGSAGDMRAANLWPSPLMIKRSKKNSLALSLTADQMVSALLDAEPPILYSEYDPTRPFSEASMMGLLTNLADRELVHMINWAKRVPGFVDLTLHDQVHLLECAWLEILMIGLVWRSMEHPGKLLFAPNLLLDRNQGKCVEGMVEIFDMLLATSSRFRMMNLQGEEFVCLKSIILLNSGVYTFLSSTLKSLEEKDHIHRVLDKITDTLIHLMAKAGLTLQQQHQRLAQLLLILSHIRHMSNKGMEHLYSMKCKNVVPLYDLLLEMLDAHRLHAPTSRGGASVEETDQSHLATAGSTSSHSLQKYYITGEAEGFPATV

[1] = system: human ZR-75-1 breast tumor xenografts; experiment: Growth of human ZR-75-1 breast tumor xenografts in OVX nude mice supplemented with estrone; conditions: OVX+E1 0.5 μg nude mice, 9.5 months; for average tumor weight: E1 control 1.12±0.26
female rat = experiment: Bone mineral density (DEXA) after 9-month treatment; type: in vivo; conditions: DHEA 10 mg percutaneously, EM-800 75 μg orally, once daily, alone or in combination, 9 months
Protocol: Female Sprague-Dawley rats [Crl:CD(SD)Br] were obtained at 44-46 days of age from Charles River Canada Inc. (St. Constant, Quebec) and housed 2 per cage in a light (12 h light/day; lights on at 07:15 h)-and temperature (22±2° C.)-controlled environment. Animals received Purina rodent chow and tap water ad libitum. The animal studies were conducted in a Canadian Council on Animal Care (CCAC)-approved facility in agreement with the CCAC Guide for Care and Use of Experimental Animals.
(§1) The animals were randomly divided into groups each containing 20 rats with the exception of 40 animals in the control group. […] Treatment was initiated 3 days before the oral administration of DMBA. EM-800 was synthesized in the Medicinal Chemistry Division of our laboratory while DHEA was purchased from Steraloids Inc., Wilton, N.H.
Rats were anesthetized with an i.p. injection of ketamine hydrochloride and diazepam at doses of 50 and 4 mg/kg B.W., respectively. The whole skeleton and the right femur were scanned using dual energy X-ray absorptiometry (DEXA; QDR 2000-7.10C, Hologic, Waltham, Mass.) equipped with a Regional High Resolution software. The scan field sizes were 28.110×17.805 cm and 5.0×1.902 cm, the resolutions were 0.1511×0.0761 cm and 0.0254×0.0127 cm, while the scan speeds were 0.3608 and 0.0956 mm/sec for total skeleton and femur, respectively. Both bone mineral content (BMC) and bone mineral density (BMD) of total skeleton, lumbar spine, and femur were measured on the scan images of total skeleton and femur.

rat = experiment: Urine and serum biochemical parameters of bone metabolism; type: in vivo; conditions: DHEA 10 mg percutaneously, EM-800 75 μg orally, once daily, alone or in combination, 9 months
From the text: as §1
Twenty-four-hour urinary samples were collected at the end of the experiment from the first 9 rats of each group following transfer in metabolic cages (Allentown Caging Equipment Co., Allentown, N.J.). Two urinary samples were collected and analyzed on different days for each animal in order to minimize the influence of daily variation. Therefore, each value shown represents the mean of the two measurements performed on two different days. 0.5 ml of toluene was added into the urine collecting tubes to prevent urine evaporation and bacterial growth and the urinary volume was recorded. Trunk blood was collected at sacrifice and was allowed to clot at 4° C. overnight before centrifugation at 3000 rpm for 30 min.
Fresh samples were used for the assay of urinary creatinine, calcium, and phosphorus as well as serum total alkaline phosphatase (tALP) activity, cholesterol and triglycerides. These biochemical parameters were measured automatically with a Monarch 2000 Chemistry System (Instrumentation Laboratory Co. Lexington, Mass.) under Good Laboratory Practice conditions. Urinary hydroxyproline was measured as described (Podenphant et al., Clinica Chimica Acta 142: 145-148, 1984).

function as SERM (estrogen receptor): found to function as SERMs
SMILES: CC1=C(c2ccc(OC(=O)C(C)(C)C)cc2)[C@H](c2ccc(OCCN3CCCCC3)cc2)Oc2cc(OC(=O)C(C)(C)C)ccc21 [EM-800, (+)-7-pivaloyloxy-3-(4′-pivaloyloxyphenyl)-4-methyl-2-(4″-(2′″-piperidinoethoxy)phenyl)-2H-benzopyran]
Complete response, (%) ([1]; EM-800 15 μg orally daily): 29.4%
Complete response, number ([1]; EM-800 15 μg orally daily): 5
Partial response, (%) ([1]; EM-800 15 μg orally daily): 5.9%
Partial response, number ([1]; EM-800 15 μg orally daily): 1
Progression, (%) ([1]; EM-800 15 μg orally daily): 35.3%
Progression, number ([1]; EM-800 15 μg orally daily): 6
Stable response, (%) ([1]; EM-800 15 μg orally daily): 29.4%
Stable response, number ([1]; EM-800 15 μg orally daily): 5
inhibition of estrogen-stimulated ZR-75-1 tumor size ([1]; EM-800 15 μg orally daily): 88% and 87.5%
average tumor weight ([1]; EM-800 15 μg orally daily): 0.08 ± 0.03 g
Complete response, (%) ([1]; EM-800 50 μg orally daily): 25.0%
Complete response, number ([1]; EM-800 50 μg orally daily): 4
Partial response, (%) ([1]; EM-800 50 μg orally daily): 18.8%
Partial response, number ([1]; EM-800 50 μg orally daily): 3
Progression, (%) ([1]; EM-800 50 μg orally daily): 25.0%
Progression, number ([1]; EM-800 50 μg orally daily): 4
Stable response, (%) ([1]; EM-800 50 μg orally daily): 31.2%
Stable response, number ([1]; EM-800 50 μg orally daily): 5
inhibition of estrogen-stimulated ZR-75-1 tumor size ([1]; EM-800 50 μg orally daily): 93% and 93.5%
average tumor weight ([1]; EM-800 50 μg orally daily): 0.03 ± 0.01 g
Complete response, (%) ([1]; EM-800 100 μg orally daily): 50.0%
Complete response, number ([1]; EM-800 100 μg orally daily): 8
Partial response, (%) ([1]; EM-800 100 μg orally daily): 0 (0) %
Partial response, number ([1]; EM-800 100 μg orally daily): 0 (0)
Progression, (%) ([1]; EM-800 100 μg orally daily): 31.2%
Progression, number ([1]; EM-800 100 μg orally daily): 5
Stable response, (%) ([1]; EM-800 100 μg orally daily): 18.8%
Stable response, number ([1]; EM-800 100 μg orally daily): 3
inhibition of estrogen-stimulated ZR-75-1 tumor size ([1]; EM-800 100 μg orally daily): 94%
average tumor weight ([1]; EM-800 100 μg orally daily): 0.04 ± 0.03 g
BMD FEMUR (female rat): 0.3097 ± 0.0047 g/cm2
BMD LUMBAR SPINE (female rat): 0.1888 ± 0.0045 g/cm2
BMD TOTAL SKELETON (female rat): 0.1356 ± 0.0017 g/cm2
increase in BMD of femur versus control (female rat): no significant change
increase in BMD of lumbar spine versus control (female rat): no significant change
increase in BMD of total skeleton versus control (female rat): no significant change
decrease of daily urinary calcium excretion versus control (rat): no statistically significant influence
decrease of daily urinary phosphorus excretion versus control (rat): no statistically significant influence
decrease of urinary hydroxyproline/creatinine ratio versus control (rat): 48%
increase of serum total alkaline phosphatase (tALP) activity versus control (rat): no statistically significant influence; also recorded: no effect
